This note sets out measurements from patent publication US6472526B1, “Imidazole derivatives having an inhibitory activity for farnesyl transferase and process for preparation thereof” (LG Chemical Ltd., priority 1997, dated 2002).

Test [1] has as its target T1, Ras farnesyl transferase (Rattus norvegicus, UniProt Q02293+Q04631).
T1 construct: endogenous in cells; host or cells: Rat2 fibroblasts transformed with H-Ras or with an H-Ras/K-Ras C-terminus fusion
Put plainly: In vivo (cellular) inhibitory activity for Ras farnesyl transferase, Rat2 cell line transformed with fused protein of H-Ras substituted with polybasic lysine domain at C-terminus of K-Ras. Type of test: cell-based. The conditions noted are these: Rat2 cell line transformed with H-Ras fused with polybasic lysine domain of K-Ras C-terminus; concentration inhibiting 50% of farnesyl bonding; read-out: K-Ras CIC50. The method, then: (§1) In the present experiment, Rat2 cell line which expresses C-Harvey-Ras protein having transforming activity and Rat2 cell line (Korean patent application No. 97-14409) which is transformed with fused protein of H-Ras substituted with polybasic lysine domain at C-terminus of K-Ras were used. The experiment was performed by the modified Declue's method (Declue. J. E. et al., Cancer Research, 1991, 51, 712). Hereinafter, the experimental method will be described in more detail.
(§2) 3×10^5 cells of transformed Rat2 fibroblast cell line were sprayed on 60 mm cell cultivation dish and cultivated for 48 hours in a cell incubator at 37° C. and after 50% or more of density was reached, it was treated with the test compounds. The compound according to the present invention dissolved in dimethylsulfoxide (DMSO) was used. 1% concentration of dimethylsulfoxide was used in both control and test groups. After 4 hours from the treatment with the compound, methionine labeled with 150 μCi of radioactive isotope [^35S] per 1 ml of medium was added and after cultivating for 20 hours, the cells were, washed with physiological saline water. The cells were lysed using 1 ml of cold cell lysis buffer solution (50 mM of Sodium HEPES buffer solution containing 5mM of magnesium chloride, 1 mM of DTT, 1% NP 40, 1 mM of EDTA, 1 mM of PMSF, 2 μM of leupeptin, 2 μM of pepstatin A and 2 μM of antipain) and the supernatant wherein the cells were lysed was obtained by high-velocity centrifugation of 12,000 g×5 minutes. The amount of radioisotope in the supernatant was measured and standardized to obtain a quantitative result in immunoprecipitation reaction and then, Y13-259, a monoclonal antibody specifically binding to Ras protein (Furth, M. E. et al., J. Virol, 1982, 43, 294) was added and reacted for 15 hours at 4° C. Protein A(combined with goat anti-murine immunoglobulin antibody)-agarose suspension was added to the solution and reacted for 1 hour at 4° C. and then, to remove the unspecific binding product, immunoprecipitates were washed with a buffer solution (50 mM Tris chloride buffer solution containing 50 mM of sodium chloride, 0.5% of sodium dioxycolate, 0.5% of NP 40 and 0.1% of SDS). The precipitates were added to a buffer solution for electrophoresis and boiled and then, electrophoresis was performed using 13.5% of SDS polyacrylamide gel. After electrophoresis, the gel was fixed and dried. Then, the gel was exposed to X-ray film, developed printed. From the result of the experiment, intensities of band of in combined with or without farnesyl of Ras protein were measured, the concentration of the test compound inhibiting 50% of farnesyl bonding was defined as […], an in vivo Ras farnesyl transferase inhibitory activity.

Test [2] has as its target T2, Ras farnesyl transferase (Homo sapiens, UniProt P49354+P49356).
T2 construct: made in house
Kind of test: In vitro inhibitory activity for Ras farnesyl transferase, H-Ras substrate. Type of test: biochemical. Particulars: recombinant farnesyl transferase 4.5 nM, Ras substrate protein 1.5 μM, tritium-farnesylpyrophosphate 0.15 μM, 30 minutes at 37° C.; read-out: H-Ras IC50. Here is the method: In the present experiment, Ras farnesyl transferase produced by genetic recombination techniques according to the improved Pompliano's method (Pompliano et al., Biochemistry, 1992, 31, 3800) was used, and Ras substrate (Ras-CVLS) protein described in Korean Patent Appln. No. 97-14409 was used after it has been purified according to the known method (see, Chung et al., Biochimica et Biophysica Acta, 1992, 278, 1129).
The enzyme reaction was performed in 50 μl of 50 mM Sodium HEPES buffer solution containing 25 mM of potassium chloride, 25 mM of magnesium chloride, 10 mM of DTT and 50 μM of zinc chloride. 1.5 μM of Ras substrate protein, 0.15 μM of tritium-farnesylpyrophosphate and 4.5 nM of farnesyl transferase were used.
More specifically, in the initial step, farnesyl transferase was added to the above buffer solution, reaction was maintained for 30 minutes at 37° C. and then the reaction was stopped by adding 1 ml of ethanol solution containing 1M HCl. The formed precipitates were adsorbed to GF/B filter using Hopper harvestor(Hopper #FH 225V) for filter-binding, washed with ethanol, and then radioactivity of the dried filter was measured using LKB β counter. Enzyme titer was measured in the unsaturated state of substrate where the concentrations of Ras substrate protein and farnesyl transferase have quantitative relationship. The compound according to the present invention dissolved in dimethyl sulfoxide (DMSO) was added to the reaction solution in an amount of less than 5% of the total reaction solution, and then the enzyme inhibitory activity thereof was measured. The enzyme inhibitory activity was represented by percentage of the amount of farnesyl incorporated into the Ras substrate protein in the presence of the test compound to that in the absence of the test compound. IC50 of the test compound was defined as the concentration at which 50% of the enzyme activity was inhibited.

In test [3] the target is T2, Ras farnesyl transferase. Kind of test: In vitro inhibitory activity for Ras farnesyl transferase, K-Ras substrate. The conditions noted are these: in vitro farnesyl transferase assay, K-Ras; read-out: K-Ras IC50. Type of test: biochemical.
Test [4] concerns the target T1, Ras farnesyl transferase. Kind of test: In vivo (cellular) inhibitory activity for Ras farnesyl transferase, Rat2 cell line which expresses C-Harvey-Ras protein. It is filed as cell-based. Particulars: Rat2 cell line expressing C-Harvey-Ras; concentration inhibiting 50% of farnesyl bonding of Ras protein; read-out: H-Ras CIC50. The method, then:
as §1, §2

Take `CN1CCN(C(=O)c2cn(Cc3cncn3Cc3cccc4ccccc34)cc2-c2cccc3ccccc23)CC1` [Compound 7, 3-(4-Methylpiperazin-1-yl)carbonyl-4-(naphthalen-1-yl)-1-[1-(naphthalen-1-ylmethyl)-1H-imidazol-5-ylmethyl]-1H-pyrrole]: the IC50 on Ras farnesyl transferase [1] is 10000 to 50000 nM; at Ras farnesyl transferase [2] it was 0.6 nM; at Ras farnesyl transferase [3], 2.2 nM; on Ras farnesyl transferase [4], 25 nM.
For `COCCN(C)C(=O)c1cn(Cc2cncn2[C@@H](C)c2ccccc2)cc1-c1cccc2ccccc12` [Compound 11], the IC50 at Ras farnesyl transferase [1] is 10000 to 50000 nM; on Ras farnesyl transferase [2], 4 nM; on Ras farnesyl transferase [3] it was 8 nM; at Ras farnesyl transferase [4], 25 nM.
`C[C@@H](c1ccccc1)n1cncc1Cn1cc(C(=O)N2CCOCC2)c(-c2cccc3ccccc23)c1` [Compound 12, 1-[1-((S)-α-Methylbenzyl)-1H-imidazol-5-ylmethyl]-3-(morpholin-4-yl)carbonyl-4-(naphthalen-1-yl)-1H-pyrrole]: the IC50 at Ras farnesyl transferase [1] is 10000 to 50000 nM; at Ras farnesyl transferase [2], 5 nM; at Ras farnesyl transferase [3] it was 6.6 nM; on Ras farnesyl transferase [4] it was 25 nM.
For `C[C@@H](c1ccccc1)n1cncc1Cn1cc(C(=O)N2CCN(C)CC2)c(-c2cccc3ccccc23)c1` [Compound 13, 1-[1-((S)-α-Methylbenzyl)-1H-imidazol-5-ylmethyl]-3-(4-methylpiperazin-1-yl)carbonyl-4-(naphthalen-1-yl)-1H-pyrrole], the IC50 is 10000 to 50000 nM at Ras farnesyl transferase [1], 0.85 nM on Ras farnesyl transferase [2], 5 nM at Ras farnesyl transferase [3] and 12.5 nM on Ras farnesyl transferase [4].
Turning to `COCCN(C)C(=O)c1cn(Cc2cncn2CCc2ccccc2)cc1-c1cccc2ccccc12` [Compound 14, 3-[N-(2-Methoxyethyl)-N-methyl]carbamoyl-4-(naphthalen-1-yl)-1-[1-(phenethyl)-1H-imidazol-5-ylmethyl]-1H-pyrrole], the IC50 at Ras farnesyl transferase [1] was 10000 to 50000 nM; on Ras farnesyl transferase [2], 2 nM; on Ras farnesyl transferase [3], 5 nM; at Ras farnesyl transferase [4] it was 12.5 nM.
For `O=C(c1cn(Cc2cncn2CCc2ccccc2)cc1-c1cccc2ccccc12)N1CCOCC1` [Compound 15], the IC50 at Ras farnesyl transferase [1] is 10000 to 50000 nM; at Ras farnesyl transferase [2] it was 5 nM; on Ras farnesyl transferase [3], 10 nM; on Ras farnesyl transferase [4], 25 nM.
Consider `CN1CCN(C(=O)c2cn(Cc3cncn3CCc3ccccc3)cc2-c2cccc3ccccc23)CC1` [Compound 16, 3-(4-Methylpiperazin-1-yl)carbonyl-4-(naphthalen-1-yl)-1-[1-(phenethyl)-1H-imidazol-5-ylmethyl)-1H-pyrrole], for which the IC50 at Ras farnesyl transferase [1] is 10000 to 50000 nM; on Ras farnesyl transferase [2] it was 1.2 nM; at Ras farnesyl transferase [3], 5 nM; on Ras farnesyl transferase [4] it was 12.5 nM.
The corresponding values for `COCCN(C)C(=O)c1cn(Cc2cncn2CCc2ccccc2OC)cc1-c1cccc2ccccc12` [Compound 17, 3-[N-(2-Methoxyethyl)-N-methyl]carbamoyl-1-[1-(2-methoxy)phenethyl-1H-imidazol-5-yl]methyl-4-(naphthalen-1-yl)-1H-pyrrole] are 10000 to 50000 nM, 2 nM, 3 nM and 25 nM.
`COc1ccccc1CCn1cncc1Cn1cc(C(=O)N2CCN(C)CC2)c(-c2cccc3ccccc23)c1` [Compound 18, 1-[1-(2-Methoxy)phenethyl-1H-imidazol-5-yl]methyl-3-[4-methylpiperazin-1-yl]carbonyl-4-(naphthalen-1-yl)-1H-pyrrole]: the IC50 on Ras farnesyl transferase [1] was 10000 to 50000 nM; at Ras farnesyl transferase [2], 1 nM; at Ras farnesyl transferase [3], 2 nM; at Ras farnesyl transferase [4], 25 nM.
`COCCN(C)C(=O)c1cn(Cc2cncn2CCc2ccc(OC)cc2)cc1-c1cccc2ccccc12` [Compound 19, 3-[N-(2-Methoxyethyl)-N-methyl]carbamoyl-1-[1-(4-methoxy)phenethyl-1H-imidazol-5-yl]methyl-4-(naphthalen-1-yl)-1H-pyrrole]: the IC50 was 10000 to 50000 nM at Ras farnesyl transferase [1], 1 nM at Ras farnesyl transferase [2], 3 nM on Ras farnesyl transferase [3] and 20 nM on Ras farnesyl transferase [4].
With `COc1ccc(CCn2cncc2Cn2cc(C(=O)N3CCN(C)CC3)c(-c3cccc4ccccc34)c2)cc1` [Compound 20, 1-[1-(4-Methoxy)phenethyl-1H-imidazol-5-yl]methyl-3-[4-methylpiperazin-1-yl]carbonyl-4-(naphthalen-1-yl)-1H-pyrrole], the IC50 at Ras farnesyl transferase [1] was 10000 to 50000 nM; at Ras farnesyl transferase [2] it was 1 nM; at Ras farnesyl transferase [3] it was 2 nM; at Ras farnesyl transferase [4], 20 nM.
The corresponding values for `COCCN(C)C(=O)c1cn(Cc2cncn2CCc2ccccc2F)cc1-c1cccc2ccccc12` [Compound 21, 1-[1-(2-Fluoro)phenethyl-1H-imidazol-5-yl]methyl-3-[N-(2-methoxyethyl)-N-methyl]carbamoyl-4-(naphthalen-1-yl)-1H-pyrrole] are 10000 to 50000 nM, 1 nM, 1 nM and 21 nM.
On to `CN1CCN(C(=O)c2cn(Cc3cncn3CCc3ccccc3F)cc2-c2cccc3ccccc23)CC1` [Compound 22, 1-[1-(2-Fluoro)phenethyl-1H-imidazol-5-yl]methyl-3-[4-methylpiperazin-1-yl]carbonyl-4-(naphthalen-1-yl)-1H-pyrrole], for which the IC50 was 10000 to 50000 nM on Ras farnesyl transferase [1], 1 nM on Ras farnesyl transferase [2], 2 nM on Ras farnesyl transferase [3] and 20 nM on Ras farnesyl transferase [4].
In the case of `COCCN(C)C(=O)c1cn(Cc2cncn2CCc2ccccc2Cl)cc1-c1cccc2ccccc12` [Compound 23, 1-[1-(2-Chloro)phenethyl-1H-imidazol-5-yl]methyl-3-[N-(2-methoxyethyl)-N-methyl]carbamoyl-4-(naphthalen-1-yl)-1H-pyrrole], the IC50 on Ras farnesyl transferase [1] is 10000 to 50000 nM; on Ras farnesyl transferase [2] it was 2 nM; at Ras farnesyl transferase [3] it was 2 nM; at Ras farnesyl transferase [4], 23 nM.
`CN1CCN(C(=O)c2cn(Cc3cncn3CCc3ccccc3Cl)cc2-c2cccc3ccccc23)CC1` [Compound 24, 1-[1-(2-Chloro)phenethyl-1H-imidazol-5-yl]methyl-3-[4-methylpiperazin-1-yl]carbonyl-4-(naphthalen-1-yl)-1H-pyrrole]: the IC50 is 10000 to 50000 nM at Ras farnesyl transferase [1], 2 nM on Ras farnesyl transferase [2], 3 nM on Ras farnesyl transferase [3] and 25 nM on Ras farnesyl transferase [4].
